# Assay results: US7678812B2, “Aminotetralin-derived urea modulators of vanilloid VR1 receptor” (Janssen Pharmaceutica NV, priority 2002, dated 2010)
# Target: hVR1 receptors (Homo sapiens, UniProt Q8NER1)
# Test: [3H] RTX binding assay, human VR1
# Set-up: expressed in transfected cells; host or cells: HEK293 (membrane preparation)
# Settings: inhibition of [3H] RTX binding, membranes of HEK293 cells transfected with human VR1
# Description: Compounds of the present invention were tested for their ability to inhibit the binding of [^3H] RTX to hVR1 receptors in a [^3H] RTX binding assay as previously described (Zhang, Sui-Po. Improved ligand binding assays for vanilloid receptors. PCT Int. Appl. (2002), 29 pp. CODEN: PIXXD2 WO 0233411 A1 20020425 AN 2002:315209; Grant, Elfrida R.; Dubin, Adrienne E.; Zhang, Sui-Po; Zivin, Robert A.; Zhong, Zhong Simultaneous intracellular calcium and sodium flux imaging in human vanilloid receptor 1 (VR1)-transfected human embryonic kidney cells: a method to resolve ionic dependence of VR1-mediated cell death. Journal of Pharmacology and Experimental Therapeutics (2002), 300(1), 9-17.)
# HEK293 cells were transfected with human VR1 vanilloid receptors and washed with Hank's Balanced Salt Solution, dissociated with cell dissociation buffer (Sigma), and then centrifuged at 1000×g for 5 min. Cell pellets were homogenized in cold 20 mM HEPES buffer, pH 7.4, containing 5.8 mM NaCl, 320 mM sucrose, 2 mM MgCl2, 0.75 CaCl2 and 5 mM KCl and centrifuged at 1000×g for 15 min. The resultant supernate was then centrifuged at 40000×g for 15 min. The pelleted membranes were kept in an −80° C. freezer.
# Approximately 120 μg protein/ml from membranes were incubated with indicated concentrations of [^3H] RTX in 0.5 ml of the HEPES buffer (pH 7.4) containing 0.25 mg/mL fatty acid-free bovine serum albumin at 37° C. for 60 min. The reaction mixture was then cooled to 4° C., 0.1 mg α1-acid glycoprotein added to each sample and incubated at 4° C. for 15 min. The samples were centrifuged at 18500×g for 15 min. The tip of the microcentrifuge tube containing the pellet was cut off. Bound radioactivity was quantified by scintillation counting. Non-specific binding was tested in the presence of 200 nM unlabeled RTX.
# Sequence of hVR1 receptors (Q8NER1 whole entry): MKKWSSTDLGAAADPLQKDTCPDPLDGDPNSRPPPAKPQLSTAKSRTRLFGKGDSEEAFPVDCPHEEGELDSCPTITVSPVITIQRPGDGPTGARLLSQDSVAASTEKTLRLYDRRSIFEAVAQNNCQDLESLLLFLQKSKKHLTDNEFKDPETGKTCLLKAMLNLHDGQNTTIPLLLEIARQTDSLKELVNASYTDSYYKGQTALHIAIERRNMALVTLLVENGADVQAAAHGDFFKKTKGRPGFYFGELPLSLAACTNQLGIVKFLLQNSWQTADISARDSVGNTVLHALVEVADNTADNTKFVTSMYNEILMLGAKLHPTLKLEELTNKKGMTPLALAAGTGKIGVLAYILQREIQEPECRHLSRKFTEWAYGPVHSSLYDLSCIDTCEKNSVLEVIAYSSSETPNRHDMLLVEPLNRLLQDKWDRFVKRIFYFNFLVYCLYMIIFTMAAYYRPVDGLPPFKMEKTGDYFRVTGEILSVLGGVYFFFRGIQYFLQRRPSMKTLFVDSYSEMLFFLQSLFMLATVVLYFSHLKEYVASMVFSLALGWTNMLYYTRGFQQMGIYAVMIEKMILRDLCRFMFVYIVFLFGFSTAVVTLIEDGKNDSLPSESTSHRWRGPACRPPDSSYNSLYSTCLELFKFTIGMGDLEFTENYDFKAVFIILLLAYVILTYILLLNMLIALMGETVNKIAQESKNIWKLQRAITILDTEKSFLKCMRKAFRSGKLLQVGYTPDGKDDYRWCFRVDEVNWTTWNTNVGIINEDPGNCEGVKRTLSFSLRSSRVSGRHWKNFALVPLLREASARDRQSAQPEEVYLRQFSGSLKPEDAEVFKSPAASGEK
row,Compound,Ki
1,"Cc1cc2c(NC(=O)NC3CCc4cc(F)ccc4C3Cc3ccccc3)cccc2cn1 (single isomer, unassigned) [Compound 81b]",5.25 nM
2,COc1ccc2c(c1)CC[C@@H](NC(=O)Nc1cccc3cnccc13)[C@H]2Cc1cccc(Cl)c1 (relative stereo) [Compound 44],1.96 nM
3,COc1ccc2c(c1)CCC(NC(=O)NCc1ccc(OC)c(OC)c1)C2Cc1ccccc1 (stereo not drawn) [Compound 10],13000 nM
4,COc1ccc2c(c1)CCC(NC(=S)NCc1ccc(O)c(OC)c1)C2Cc1cccnc1 (stereo not drawn) [Compound 6],> 10000 nM
5,COc1ccc2c(c1)CCC(NC(=O)NCc1ccc(O)c(OC)c1)C2Cc1ccccc1 (stereo not drawn) [Compound 19],258 nM
6,O=C(Nc1cccc2cnccc12)NC1CCc2cc(Cl)ccc2C1Cc1ccccc1 (stereo not drawn) [Compound 86],1.7 nM
7,O=C(Nc1cccc2c(Cl)nc(Cl)cc12)NC1CCc2cc(F)ccc2C1Cc1ccccc1 (stereo not drawn) [Compound 108],186 nM
8,COc1ccc2c(c1)CCC(NC(=O)Nc1cccc3cnccc13)C2Cc1cccnc1 (stereo not drawn) [Compound 45],1540 nM
9,"O=C(Nc1cccc2cnccc12)NC1CCc2cc(F)ccc2C1CC1CC1 (stereo not drawn) [Compound 71, 1-(1-cyclopropylmethyl-6-fluoro-1,2,3,4-tetrahydronaphthalene-2-yl)-3-isoquinolin-5-yl-urea]",0.84 nM
10,COc1ccc2c(c1)CCC(NC(=O)Nc1cccc3cnccc13)C2Cc1c(F)cccc1F (stereo not drawn) [Compound 77],6.26 nM
11,COc1ccc2c(c1)CCC(NC(=O)NCc1ccc3c(c1)OCO3)C2Cc1ccccc1 (stereo not drawn) [Compound 9],> 10000 nM
12,COc1cc2c(cc1OC)C(Cc1ccccc1)C(NC(=O)Nc1cccc3cnccc13)CC2 (stereo not drawn) [Compound 40],29.6 nM
13,COc1ccc2c(c1)CCC(NC(=S)NCc1ccc3c(c1)OCO3)C2Cc1ccccc1 (stereo not drawn) [Compound 14],> 10000 nM
14,COc1ccc(CC2c3ccc(OC)cc3CCC2NC(=O)Nc2cccc3cnccc23)cc1 (stereo not drawn) [Compound 70],5.55 nM
15,O=C(Nc1cccc2cnccc12)NC1CCc2cc(Br)ccc2C1 (stereo not drawn) [Compound 58],2.62 nM
16,COc1ccc(CC2c3ccc(OC)cc3CCC2NC(=O)Nc2cccc3cnccc23)cc1 (stereo not drawn) [Compound 72],7.52 nM
17,COc1ccc2c(c1)CCC(NC(=O)Nc1cccc3ccc(O)cc13)C2Cc1ccccc1 (stereo not drawn) [Compound 35],9.64 nM
18,O=C(Nc1cccc2c(Cl)nc(Cl)cc12)NC1CCc2cc(F)ccc2C1Cc1ccccc1 (stereo not drawn) [Compound 109],29.2 nM
19,COCOc1ccc(CNC(=S)NC2CCc3ccccc3C2Cc2ccccc2)cc1OC (stereo not drawn) [Compound 21],520 nM

row,Compound,Ki
1,O=C(Nc1cccc2cncc(Cl)c12)NC1CCc2cc(F)ccc2C1Cc1ccccc1 (stereo not drawn) [Compound 99],2700 nM
2,O=C(Nc1cccc2cnccc12)NC1CCc2cc(F)c(F)cc2C1Cc1ccccc1 (stereo not drawn) [Compound 66],1.82 nM
3,"Cc1cc2c(NC(=O)NC3CCc4cc(F)ccc4C3Cc3ccccc3)cccc2cn1 (single isomer, unassigned) [Compound 81a]",1.12 nM
4,O=C(Nc1cccc2cnccc12)NC1CCc2cc(F)ccc2C1 (stereo not drawn) [Compound 37],24.9 nM
5,O=C(Nc1cccc2cnccc12)NC1CCc2ccc(Cl)cc2C1Cc1ccccc1 (stereo not drawn) [Compound 41],4.58 nM
6,COc1ccc2c(c1)CCC(NC(=O)Nc1cccc3cnccc13)C2Cc1ccc(OCc2ccccc2)cc1 (stereo not drawn) [Compound 74],11.3 nM
7,COc1ccc2c(c1)CC[C@@H](NC(=O)Nc1cccc3cnccc13)[C@H]2Cc1ccccc1Cl (relative stereo) [Compound 49],2.66 nM
8,COc1ccc2c(c1)CCC(NC(=O)Nc1cccc3cnccc13)C2Cc1cccnc1 (stereo not drawn) [Compound 47],1030 nM
9,"O=C(Nc1cccc2c(Cl)nccc12)NC1CCc2cc(F)ccc2C1Cc1ccccc1 (single isomer, unassigned) [Compound 104]",32.3 nM
10,COc1ccc2c(c1)CCC(NC(=O)Nc1cccc3cnccc13)C2Cc1ccccc1OC (stereo not drawn) [Compound 73],53.4 nM
11,COc1ccc2c(c1)CCC(NC(=O)Nc1cccc3cnccc13)C2 (stereo not drawn) [Compound 51],24 nM
12,O=C(Nc1cccc2cnccc12)NC1CCc2cc(O)ccc2C1Cc1ccccc1 (stereo not drawn) [Compound 56],277 nM
13,"O=C(Nc1cccc2ccc(O)cc12)NC1CCc2cc(F)ccc2C1Cc1ccccc1 (stereo not drawn) [Compound 67, 1-(1-Benzyl-6-fluoro-1,2,3,4-tetrahydronaphthalene-2-yl)-3-(7-hydroxy-naphthalen-1-yl)-urea]",1.44 nM
14,O=C(Nc1cccc2cnccc12)NC1CCc2ccccc2C1Cc1ccccc1 (stereo not drawn) [Compound 43],3.66 nM
15,COc1cc2c(cc1OC)C(Cc1ccccc1)C(NC(=O)Nc1cccc3cnccc13)CC2 (stereo not drawn) [Compound 48],19.3 nM
16,O=C(Nc1cccc2cnccc12)N[C@H]1CCc2cc(Br)ccc2[C@H]1Cc1ccccc1 (relative stereo) [Compound 39],0.89 nM
17,COc1ccc2c(c1)CCC(NC(=O)Nc1cccc3cnccc13)C2Cc1ccc(C#N)cc1 (stereo not drawn) [Compound 63],16.5 nM
18,COc1ccc2c(c1)CCC(NC(=O)NCc1ccc(N(C)C3CCCCC3)cc1)C2Cc1ccccc1 (stereo not drawn) [Compound 25],70900 nM
19,COc1ccc2c(c1)CCC(NC(=S)NCc1ccc(O)c(OC)c1)C2Cc1c[nH]cn1 (stereo not drawn) [Compound 8],> 10000 nM

row,Compound,Ki
1,O=C(Nc1cccc2cnccc12)NC1CCc2ccc(Cl)cc2C1 (stereo not drawn) [Compound 61],3.42 nM
2,COc1ccc2c(c1)CC[C@@H](NC(=O)Nc1cccc3cnccc13)[C@@H]2Cc1ccccc1Cl (relative stereo) [Compound 52],12.3 nM
3,COc1ccc2c(c1)CCC(NC(=O)Nc1cccc3cnccc13)C2Cc1ccccc1C(F)(F)F (stereo not drawn) [Compound 53],0.48 nM
4,COc1ccc2c(c1)CC[C@@H](NC(=O)Nc1cccc3cnccc13)[C@@H]2Cc1cccc(Cl)c1 (relative stereo) [Compound 46],8.81 nM
5,COc1ccc2c(c1)CCC(NC(=O)Nc1cccc3cnccc13)C2Cc1ccc(Cl)cc1 (stereo not drawn) [Compound 50],1.8 nM
6,COc1ccc2c(c1)CCC(NC(=O)Nc1cccc3cnccc13)C2Cc1ccc(C(F)(F)F)cc1 (stereo not drawn) [Compound 55],1.55 nM
7,COc1ccc2c(c1)CCC(NC(=O)Nc1cccc3cnccc13)C2Cc1cccc(C(F)(F)F)c1 (stereo not drawn) [Compound 54],2.04 nM
8,O=C(Nc1cccc2cnccc12)NC1CCc2cc(F)ccc2C1Cc1cccs1 (stereo not drawn) [Compound 76],3.81 nM
9,"O=C(NCc1cccc2cnccc12)NC1CCc2cc(F)ccc2C1Cc1ccccc1 (stereo not drawn) [Compound 60, 1-(1-Benzyl-6-fluoro-1,2,3,4-tetrahydronaphthalene-2-yl)-3-isoquinolin-5-ylmethyl-urea]",4.99 nM
10,COc1ccc2c(c1)CCC(NC(=O)Nc1cccc3cnccc13)C2Cc1ccc(Br)cc1 (stereo not drawn) [Compound 64],1.28 nM
11,O=C(Nc1cccc2cnccc12)NC1CCc2cccc(Cl)c2C1Cc1ccccc1 (stereo not drawn) [Compound 62],7.59 nM
12,COc1cc(CNC(=S)NC2CCc3ccccc3C2Cc2ccccc2)ccc1O (stereo not drawn) [Compound 23],98.2 nM
13,COc1ccc2c(c1)CCC(NC(=O)NCCc1ccc(OC)c(OC)c1)C2Cc1ccccc1 (stereo not drawn) [Compound 13],3600 nM
14,O=C(Nc1cccc2cncc(Cl)c12)N[C@H]1CCc2cc(F)ccc2[C@H]1Cc1ccccc1 (relative stereo) [Compound 98],2730 nM
15,COc1ccc2c(c1)CCC(NC(=S)NCc1ccc(OC)c(OC)c1)C2Cc1ccccc1 (stereo not drawn) [Compound 15],3110 nM
16,"COc1ccc2c(c1)CCC(NC(=S)NCc1ccc(O)c(OC)c1)C2Cc1ccccc1 (stereo not drawn) [Compound 3, 1-(1-Benzyl-6-methoxy-1,2,3,4-tetrahydro-naphthalen-2-yl)-3-(4-hydroxy-3-methoxy-benzyl)-thiourea]",98.9 nM
17,O=C(Nc1cccc2cnccc12)NC1CCc2cc(Cl)ccc2C1 (stereo not drawn) [Compound 59],2.6 nM
18,C=CCC1c2ccc(F)cc2CCC1NC(=O)Nc1cccc2cnccc12 (stereo not drawn) [Compound 69],2.19 nM
19,"O=C(Nc1cccc2c[n+]([O-])ccc12)NC1CCc2cc(F)ccc2C1Cc1ccccc1 (single isomer, unassigned) [Compound 97]",45.4 nM
